In PubChem BioAssay AID1985 (Southern Research Specialized Biocontainment Screening …, 2009):
Several values for one entry are separate records, joined by “and”; a condition that tells them apart may be missing. Equal values may be shown once.

Test system: S. Typhi PhoP-promoter GFP reporter, fluorescence, 4 h
Test: PhoP regulon inhibitor project modified counter assay, GFP fluorescence readout, dose response (AID 1985)

`C#CCOCCOCCOCCNc1nc(N2CCN(C(=O)[C@H](CCCCN)n3cc([C@@H](N)CC(C)C)nn3)CC2)nc(N2CCN(C(=O)[C@H](Cc3cc4ccccc4[nH]3)n3cc([C@@H](N)Cc4ccc(O)cc4)nn3)CC2)n1` was tested. Which IC50 did it give?
Its IC50 is 54.5 µM.

With `CCCCCCCCCCCCCCCC[n+]1cccc(C(=O)N(CC)CC)c1` as the compound, how does the IC50 read?
Its IC50 is 20.1 µM.

With `O=c1c2ccccc2[nH]c2ccccc12` as the compound, how does the IC50 read?
Its IC50 is 27.2 µM.

How did the IC50 turn out when `C[C@H]1c2cccc(O)c2C(O)=C2C(=O)C3(O)C(O)=C(C(N)=O)C(=O)[C@@H](N(C)C)[C@@H]3[C@@H](O)[C@@H]21` (stereo partly specified) was run?
The IC50 was 1.9 µM.

How did the IC50 turn out when `CC[C@H]1OC(=O)C[C@@H](O)[C@H](C)[C@@H](O[C@@H]2O[C@H](C)C[C@H](N(C)C)[C@H]2O)[C@@H](CC=O)C[C@@H](C)C(=O)C=C[C@]2(C)O[C@H]2[C@@H]1C` was run?
The IC50 was 9.29 µM.

How did the IC50 turn out when `Clc1cc(Br)ccc1OCCCNCc1ccccc1` was run?
The IC50 was 45.5 µM.

`CC[N+](C)(CC)CCC[n+]1c(-c2ccccc2)c2cc(N)ccc2c2ccc(N)cc21` was tested. Which IC50 did it give?
Its IC50 is 53.4 µM.

With `COc1nccnc1NS(=O)(=O)c1ccc(N=Cc2c(C)[nH]n(-c3ccc(C)c(C)c3)c2=O)cc1` as the compound, how does the IC50 read?
Its IC50 is 114 µM.

For `CCCCCCCCCCOC(=O)Cn1c(COc2ccc(Cl)cc2)[n+](C)c2ccccc21`, which IC50 is on record?
Its IC50 is 15.7 µM.

`Cc1cc(C)n2nc(S(=O)(=O)Nc3c(Cl)cccc3Cl)nc2n1` was tested. Which IC50 did it give?
The IC50 was 11.1 µM.

Which IC50 does the source give for `CSc1ccc2c(c1)C(N1CCN(C)CC1)Cc1ccc(F)cc1S2` (stereo unspecified) here?
Its IC50 is 51.8 µM.

For `O=C(N/N=C/c1cc(Cl)cc(Cl)c1O)c1ccncc1`, which IC50 is on record?
The IC50 was 20.2 µM.

How did the IC50 turn out when `CC[n+]1c(/C=C/C=C/c2ccc(N(C)C)cc2)sc2ccccc21` was run?
Its IC50 is 35.7 µM.

With `Cc1ccccc1C(=O)Nc1cccc(C(=O)N/N=C/c2cc(Cl)cc([N+](=O)[O-])c2O)c1` as the compound, how does the IC50 read?
The IC50 was 33.8 µM.

`O=C(/C=C/c1cc(Br)ccc1O)c1ccco1` was tested. Which IC50 did it give?
Its IC50 is 68.1 µM.

`Cc1ccc(Nc2cc(C)c3c(O)cccc3n2)cc1C` was tested. Which IC50 did it give?
Its IC50 is 30.7 µM.

For `Cc1cccc(C(=O)NNC(=S)NC(=O)c2cccs2)c1`, which IC50 is on record?
The IC50 was 50.1 µM.

With `OC(CN1CCCCC1)Cn1c2ccccc2c2cc(Br)ccc21` (stereo unspecified) as the compound, how does the IC50 read?
The IC50 was 81.9 µM.

Which IC50 does the source give for `CNC[C@@H](Cc1ccccc1)NC[C@@H](CC1CCCCC1)NCCCc1ccccc1` here?
Its IC50 is 41.8 µM.

With `O=C(Nc1ccc(-c2nc3ccccc3[nH]2)cc1)c1ccco1` as the compound, how does the IC50 read?
The IC50 was 87 µM.

How did the IC50 turn out when `NC(=O)SCC(=O)Nc1cccc(Cl)c1` was run?
The IC50 was 29.9 µM.

How did the IC50 turn out when `O=C(/C=C/c1ccccc1Cl)c1ccccc(=O)c1O` was run?
Its IC50 is 37.9 µM.

For `Oc1ccc(COCc2ccccc2)c2cccnc12`, which IC50 is on record?
Its IC50 is 47.8 µM.

With `CN(C)CCCN(C(=O)CCc1ccccc1)c1nc2ccc(Br)cc2s1` as the compound, how does the IC50 read?
Its IC50 is 110 µM.

For `CN1CCN(C(c2ccc(Cl)cc2)c2cc(Cl)c3cccnc3c2O)CC1` (stereo unspecified), which IC50 is on record?
Its IC50 is 31.8 µM.

Which IC50 does the source give for `COc1cc(/C=C2/C(=O)NN(c3ccc(C)c(Cl)c3)C2=O)cc([N+](=O)[O-])c1O` here?
The IC50 was 46.6 µM.

With `c1ccc(Nc2nc(NCC3CCCO3)c3ccccc3n2)cc1` (stereo unspecified) as the compound, how does the IC50 read?
Its IC50 is 16.8 µM.

For `O=C(N/N=C/c1ccccn1)c1ccc(Br)o1`, which IC50 is on record?
Its IC50 is 50.1 µM.

How did the IC50 turn out when `O=c1ccc2cc3c([nH]c4ccc(Br)cc43)oc-2c1O` was run?
The IC50 was 22.5 µM.

For `CCOc1cccc(/C=N/NC(=O)c2cc(C3CC3)[nH]n2)c1O`, which IC50 is on record?
The IC50 was 136 µM.

With `CCOc1cc(C(c2c(C)[nH][nH]c2=O)c2c(C)[nH][nH]c2=O)cc([N+](=O)[O-])c1O` as the compound, how does the IC50 read?
Its IC50 is 75.6 µM.

How did the IC50 turn out when `O=C(NCCCN1CCN(c2ccc(F)cc2)CC1)Nc1ccc([N+](=O)[O-])cc1` was run?
Its IC50 is 117 µM.

Which IC50 does the source give for `C[C@H]1c2cccc(O)c2C(O)=C2C(=O)[C@]3(O)C(O)=C(C(N)=O)C(=O)[C@@H](N(C)C)[C@@H]3[C@@H](O)[C@@H]21` here?
Its IC50 is 1.97 µM.

Which IC50 does the source give for `O=C(C[n+]1cc(-c2ccc(Cl)c(Cl)c2)n2c1CCC2)N1c2ccccc2Sc2ccccc21` here?
The IC50 was 78.2 µM.

How did the IC50 turn out when `c1ccc2c(NCCc3c[nH]c4ccccc34)c3ccccc3nc2c1` was run?
The IC50 was 75.7 µM.

For `Oc1c(Br)cc(Br)cc1C=Nc1ccc2[nH]ncc2c1`, which IC50 is on record?
Its IC50 is 48.6 µM.

How did the IC50 turn out when `CCc1ccc2c(c1)C1(NN=C(c3ccc(C)cc3)S1)C(=O)N2` (stereo unspecified) was run?
Its IC50 is 24.4 µM.

For `O=C1OCC(CO)(CO)N=C1NNc1ccc(Cl)c(Cl)c1`, which IC50 is on record?
Its IC50 is 26.1 µM.

Which IC50 does the source give for `O=C(O)c1cn(-c2ccc(F)cc2)c2cc(Cl)c(F)cc2c1=O` here?
Its IC50 is 89.8 µM.

Which IC50 does the source give for `Oc1[nH]c2ccccc2c1N=NC(=S)N1CCOCC1` here?
Its IC50 is 17.4 µM.

`O=C(Nc1nc(-c2ccccn2)cs1)c1ccc(Br)s1` was tested. Which IC50 did it give?
Its IC50 is 20.1 µM.

For `NC1=NC[C@H](Cc2ccc(O)cc2)N1CCC12CC3CC(CC(C3)C1)C2`, which IC50 is on record?
Its IC50 is 95 µM.

With `O=C(N/N=C\c1ccc(Cl)s1)c1cccs1` as the compound, how does the IC50 read?
The IC50 was 32.9 µM.

`O=C(Nc1cccc(Br)c1)c1cc2ccccc2o1` was tested. Which IC50 did it give?
Its IC50 is 47.4 µM.

How did the IC50 turn out when `CN(C)CCCNC(=S)NCC(c1ccc(Cl)cc1Cl)c1c[nH]c2ccccc12` (stereo unspecified) was run?
The IC50 was 36.5 µM.

How did the IC50 turn out when `CN(C)C1C(=O)C(C(N)=O)=C(O)C2(O)C(=O)C3=C(O)c4c(O)cccc4C(C)(O)C3C(O)C12` (stereo unspecified) was run?
The IC50 was 1.54 µM.

For `COc1cccc(Nc2nc(NCC3CCCO3)c3ccccc3n2)c1` (stereo unspecified), which IC50 is on record?
Its IC50 is 34.2 µM.

Which IC50 does the source give for `O=Nc1c(O)c2ccccc2c2ccccc12` here?
Its IC50 is 24.6 µM.

`Nc1nc(Nc2ccc(Cl)cc2)nc2ccccc12` was tested. Which IC50 did it give?
The IC50 was 33 µM.

`CCN1CCN(C(=O)c2cc3cc(F)ccc3[nH]2)CC1` was tested. Which IC50 did it give?
The IC50 was 97.5 µM.

`Cc1ccc2nc(NCc3ccccc3)[nH]c2c1` was tested. Which IC50 did it give?
Its IC50 is 72.6 µM.

For `Cc1cccc(NC2=NC3(CCCCC3)N=C(N)N2)c1`, which IC50 is on record?
Its IC50 is 88.4 µM.

`CCc1ccc(CNCc2ccc(OCC(O)CN(C)Cc3ccccc3)cc2)nc1` (stereo unspecified) was tested. Which IC50 did it give?
The IC50 was 146 µM.

Which IC50 does the source give for `O=C(CSc1ccccn1)Nc1nonc1[N+](=O)[O-]` here?
The IC50 was 43.5 µM.

Which IC50 does the source give for `CN1CCN(c2c(F)cc3c(=O)c(C(=O)O)cn4c3c2SCC4)CC1` here?
The IC50 was 3.16 µM and 3.49 µM.

How did the IC50 turn out when `Cc1ccc(C(=O)N/N=C\c2ccc([N+](=O)[O-])s2)cn1` was run?
Its IC50 is 20 µM.
